Results on 1 compound are retold here after patent publication US20210386789A1, “Enhancement of Mesenchymal Stem Cell Anti-inflammatory and Regenerative Activity Using mTOR Inhibitors” (BRAIN CANCER RESEARCH INSTITUTE, priority 2020, published 2021).

Each structure is given as a SMILES string.

This data set has as its system Bone marrow MSCs. The data set can be described thus: HGF-1 production by bone marrow MSCs cultured with rapamycin (ELISA). The data set is classed as cell-based. The following applies: bone marrow MSCs (ATCC), 96 well plates, indicated concentrations of rapamycin and time points, ELISA (R&D Systems), FIG. 1. The method, then: Bone marrow MSCs were purchased from American Type Culture Collection (hereinafter, “ATCC”) and grown in DMEM media with 10% fetal calf serum. Cells were allowed to expand to 100% confluence. The media was subsequently washed with phosphate buffered saline (PBS). Cells were plated on 96 well plates and cultured in the presence of the indicated concentrations of rapamycin for the indicated time points. Hepatocyte Growth Factor (HGF-1) expression was assessed using ELISA (R&D Systems).
(In an ELISA, binding on a coated surface is turned into a signal by an enzyme label.)

With `CO[C@H]1C[C@@H]2CC[C@@H](C)[C@@](O)(O2)C(=O)C(=O)N2CCCC[C@H]2C(=O)O[C@H]([C@H](C)C[C@@H]2CC[C@@H](O)[C@H](OC)C2)CC(=O)[C@H](C)/C=C(\C)[C@@H](O)[C@@H](OC)C(=O)[C@H](C)C[C@H](C)/C=C/C=C/C=C/1C` [rapamycin, Rapamycin], the “Hepatocyte Growth Factor (HGF-1) expression / production” value is “significant increase in production of HGF-1”.
